One data set deals with SARS-CoV-2 (B.1). It is filed as cell-based.
The nature of the next data set: in vitro. The settings on record: human.
For data set [1], the system named is TMPRSS2. Format: cell-based, human.
A further data set deals with Zaire Ebola virus (EBOV). Particulars: cited from earlier work.
For data set [2], the system named is HEK293T-ACE2-TMPRSS2 cells.
Data set [3] concerns ACE2. Format: cell-based, human.
In another data set the test system is Sigma-1 receptor (S1R). The settings on record: cited from earlier work.
Data set [4] has as its system COVID-19. Particulars: follow up randomized controlled trial ref Reis et al., 2021; cited from earlier work.
The subject of data set [5] is COVID-19. Particulars: COVID-19 patients, treatment for 20 days ref Hoertel, et al., 2021b; cited from earlier work.
For the next data set, the system named is S2R. The settings on record: ref Robson et al., 2012; cited from earlier work.
The conditions of data set [6]: samples collected from pilot fatalities ref Johnson et al., 2007; cited from earlier work.
Data set [7] has as its system ACE2. Format: cell-based, human. The source holds these as a separate data set.
The subject of data set [8] is TMPRSS2. Format: cell-based, human. The source holds these as a separate data set.
The subject of data set [9] is SARS-CoV-2 B.1.1.7 (alpha). It is filed as cell-based.
In data set [10] the test system is SARS-CoV-2 B.1.351 (beta). It is filed as cell-based.
Data set [11] deals with SARS-CoV-2 B.1.617.2 (delta). It is filed as cell-based.
Setting [12] is: ref Narita et al., 1996, Sukhatme et al., 2021.

Entries after “also recorded” stand apart in the source; their conditions may differ. Read-outs that look alike come from different tables or passages of the source.

As to `CN(C)CCCN1c2ccccc2CCc2ccc(Cl)cc21` [Clomipramine], in the data set on SARS-CoV-2 (B.1), the “genome copies of SARS-CoV-2 (qRT-PCR)” value is recorded as “clearly reduced” and the “infectious virus particles (TCID50 assay)” value (“infectious virus particles” for short) is given as “clearly reduced”. For the same compound, the “viability of infected Calu-1 cells (ATP level)” value in the data set on Calu-1 cells is recorded as “decreased the cell viability”. For the same compound, the CC50 in “in vitro” was 65.7 µM. Moreover, the “TMPRSS2 mRNA level” value in the data set on TMPRSS2 [1] is listed as “remained ineffective”. The “Zaire Ebola virus (EBOV) entry to target cells” value (“Zaire Ebola virus (EBOV) entry” for short) with Zaire Ebola virus (EBOV) was “reduce the Zaire Ebola virus (EBOV) entry”. The “cell viability (ATP level) in non-infected and infected cells” value in data set [2] is recorded as “Reduction”. For the same compound, the “ACE2 mRNA level” value with ACE2 [3] is reported as “induced a reduction of this target”.

Consider `CN[C@H]1CC[C@@H](c2ccc(Cl)c(Cl)c2)c2ccccc21` [sertraline], for which, in the data set with Sigma-1 receptor (S1R) (setting [12]), the “binding to S1R” value is “bind to S1R”. For the same compound, the “Zaire Ebola virus (EBOV) entry” value in the data set on Zaire Ebola virus (EBOV) is recorded as “reduce the Zaire Ebola virus (EBOV) entry”.

As for `COCCCC/C(=N\OCCN)c1ccc(C(F)(F)F)cc1` [Fluvoxamine], in the data set on Sigma-1 receptor (S1R) (setting [12]), the “binding to S1R” value is given as “bind to S1R”. For the same compound, the CC50 in “in vitro” was found to be 75.3 µM. Moreover, in the data set with COVID-19 [4], the “hospitalization risk due to COVID-19” value is “helps with the reduction of hospitalization risk”. Further, the “cell viability (ATP level) in non-infected and infected cells” value in [2] is “Reduction”.

`Fc1ccc([C@@H]2CCNC[C@H]2COc2ccc3c(c2)OCO3)cc1` [Paroxetine]: in the data set on Sigma-1 receptor (S1R) (setting [12]), the “binding to S1R” value was “bind to S1R”. The CC50 in “in vitro” came out at 22.1 µM. Further, the “Zaire Ebola virus (EBOV) entry” value in the data set with Zaire Ebola virus (EBOV) was “reduce the Zaire Ebola virus (EBOV) entry”. In addition, the “cell viability (ATP level) in non-infected and infected cells” value in data set [2] is on record as “Reduction”.

As for `OCCN1CCN(CCC=C2c3ccccc3Sc3ccc(C(F)(F)F)cc32)CC1` [Flupenthixol], the CC50 in the data set “in vitro” stood at 19.4 µM. Moreover, the “cell viability (ATP level) in non-infected and infected cells” value in data set [2] is listed as “Reduction”.

Regarding `CN(C)CCCN1c2ccccc2Sc2ccc(Cl)cc21` [Chlorpromazine], in the data set on SARS-CoV-2 (B.1), the “amount of infectious virus (TCID50 assay)” value is recorded as “failed to observe diminished amount of infectious virus” and the “total amount of virus / genome copy number (qRT-PCR)” value is listed as “able to reduce the total amount of virus”. Moreover, the “viability of infected Calu-1 cells (ATP level)” value in the data set on Calu-1 cells is “slight but significant reduction in the viability”. In the data set “in vitro”, this compound displayed a CC50 of 15.9 µM. In the data set on TMPRSS2 [1], the “TMPRSS2 mRNA level” value was “remained ineffective”. Besides, the “cell viability (ATP level) in non-infected and infected cells” value in data set [2] was “Reduction”. The “ACE2 mRNA level” value in the data set on ACE2 [3] is recorded as “induced a reduction of this target”.

Take `CN(C)CCCN1c2ccccc2CCc2ccccc21` [Imipramine]: the “binding to S1R” value with Sigma-1 receptor (S1R) (setting [12]) is reported as “bind to S1R”. Moreover, in the data set on SARS-CoV-2 (B.1), the “genome copies of SARS-CoV-2 (qRT-PCR)” value is given as “reducing the genome copies” and the “infectious virus particles” value is reported as “failed to effect the TCID50”. Further, in the data set on Calu-1 cells, the “viability of infected Calu-1 cells (ATP level)” value is “All compounds, except for imipramine, decreased the cell viability”. In the data set “in vitro”, this compound returned a CC50 of 68.6 µM. Also, in [2], the “cell viability (ATP level)” value is reported as “reduced ATP levels”; the “cell viability (ATP level) in non-infected and infected cells” value was “Reduction”.

With `CCOc1ccccc1OC(c1ccccc1)C1CNCCO1` (stereo not shown) [Reboxetine], in the data set on SARS-CoV-2 (B.1), the “genome copies of SARS-CoV-2 (qRT-PCR)” value is “clearly reduced” and the “infectious virus particles” value was “clearly reduced”.

In the case of `CNCCCN1c2ccccc2CCc2ccccc21` [Desipramine], the “binding to S1R” value in the data set with Sigma-1 receptor (S1R) (setting [12]) is given as “bind to S1R”. In the data set “in vitro”, this compound returned a CC50 of 68.9 µM. In addition, the “cell viability (ATP level) in non-infected and infected cells” value in [2] was “Reduction”.

Turning to `CN(C)CCC[C@@]1(c2ccc(F)cc2)OCc2cc(C#N)ccc21` [escitalopram], the “risk of intubation or death by COVID-19” value in the data set on COVID-19 [5] is “reduce the risk of intubation or death”.

On to `CN(C)CCCC1(c2ccc(F)cc2)OCc2cc(C#N)ccc21` (stereo not shown) [Citalopram], for which, in the data set on Sigma-1 receptor (S1R) (setting [12]), the “binding to S1R” value is given as “bind to S1R”. Further, in the data set on SARS-CoV-2 (B.1), the “genome copies of SARS-CoV-2 (qRT-PCR)” value is “clearly reduced” and the “infectious virus particles” value is listed as “clearly reduced”. Besides, the “viability of infected Calu-1 cells (ATP level)” value in the data set on Calu-1 cells is “decreased the cell viability”. Moreover, in “in vitro”, the CC50 turned out to be 274 µM. Besides, in [2], the “cell viability (ATP level) in non-infected and infected cells” value is “Reduction”.

Consider `COc1ccc(C(CN(C)C)C2(O)CCCCC2)cc1` (stereo not shown) [Venlafaxine], for which the “affinity to S1R” value in the data set with Sigma-1 receptor (S1R) (ref Ishima et al., 2014) is “very weak affinity”. In the data set on SARS-CoV-2 (B.1), the “genome copies of SARS-CoV-2 (qRT-PCR)” value is listed as “ineffective” and the “infectious virus particles” value is “ineffective”. Besides, the “viability of infected Calu-1 cells (ATP level)” value in the data set on Calu-1 cells is given as “decreased the cell viability”. In data set [2], the CC50 result was “No fitting”; the “cell viability (ATP level)” value was “all the compounds, except (E) venlafaxine and (F) reboxetine reduced ATP levels”. Further, the “risk of intubation or death by COVID-19” value in the data set with COVID-19 [5] is “reduce the risk of intubation or death”.

Consider `CNC1(c2ccccc2Cl)CCCCC1=O` (stereo not shown) [Ketamine], for which the “binding to S1R” value in the data set on Sigma-1 receptor (S1R) (ref Robson et al., 2012) was “can bind to both S1R and S2R”. In the data set on S2R, the “binding to S2R” value is “can bind to both S1R and S2R”.

`CNCCC(Oc1ccc(C(F)(F)F)cc1)c1ccccc1` (stereo not shown) [Fluoxetine]: the “binding to S1R” value in the data set with Sigma-1 receptor (S1R) (setting [12]) is reported as “bind to S1R”. Further, in the data set with SARS-CoV-2 (B.1), the “genome copies of SARS-CoV-2 (qRT-PCR)” value is recorded as “clearly reduced” and the “infectious virus particles” value was “clearly reduced”. For the same compound, in data set [6], the “mean concentration of fluoxetine in lungs” value was 19.6 µg/g. In the data set with Calu-1 cells, the “viability of infected Calu-1 cells (ATP level)” value is reported as “decreased the cell viability”. In addition, the “Calu-1 viability (ATP levels)” value in the data set with Calu-1 cells (human) was “slightly reduced the Calu-1 viability”. Also, the ACE2 protein level entry in the data set with ACE2 [7] was “does not exert any effect on the ACE2 expression”. Further, in the data set “in vitro”, the CC50 came to 41.5 µM. The TMPRSS2 protein level result in the data set on TMPRSS2 [8] is “significantly increased; also recorded: Despite not being statistically significant, fluoxetine also increased TMPRSS2”. Further, in data set [9], the “TCID50 (infectious virus)” value is listed as “reduced” and the “genome copy number (qRT-PCR)” value was “reduced”. In addition, in data set [10], the “TCID50 (infectious virus)” value is “reduced” and the “genome copy number (qRT-PCR)” value is recorded as “reduced”. Besides, the “TMPRSS2 mRNA level” value in the data set with TMPRSS2 [1] is on record as “increased”. The “cell viability (ATP level) in non-infected and infected cells” value in [2] is “Reduction”. The “risk of intubation or death by COVID-19” value in the data set with COVID-19 [5] is on record as “reduce the risk of intubation or death”. In [11], the “TCID50 (infectious virus)” value was “reduced” and the “genome copy number (qRT-PCR)” value is “reduced”. In the data set on ACE2 [3], the “ACE2 mRNA level” value is reported as “remained unaltered”.

For `O=c1[nH]c2ccccc2n1C1CCN(CCCC(c2ccc(F)cc2)c2ccc(F)cc2)CC1` [Pimozide], in “in vitro”, the CC50 worked out at 15 µM. The “cell viability (ATP level) in non-infected and infected cells” value in data set [2] is on record as “Reduction”.

Values taken from paper PMC8809408 (Frontiers in Pharmacology, 2022).
